Data reported in ChEMBL document CHEMBL5137080, “Discovery of Novel 7-Hydroxy-5-oxo-4,5-dihydrothieno[3,2-b]pyridine-6-carboxamide Derivatives with Potent and Selective Antifungal Activity against Cryptococcus Species” (J Med Chem, 2022).
In brackets after ≈: the same amount, converted by molar mass. Activity calls are given as the source filed them. No cut-off for these calls is given here.

Tests used:
Cryptococcus neoformans [1] = test: Antifungal activity against Cryptococcus neoformans clinical isolate SH68 assessed as fungal growth inhibition incubated for 72 hrs by broth microdilution method; format: functional
Cryptococcus neoformans [2] = test: Synergistic antifungal activity against Cryptococcus neoformans clinical isolate 444 assessed as fractional inhibitory concentration index incubated for 72 hrs in presence of P163-0892 by broth microdilution method; format: functional
[3] = test system: Cryptococcus deuterogattii; test: Antifungal activity against Cryptococcus gattii WM178 infected in Wax moth larvae assessed as median survival time at 10 mg/kg measured after 9 days by Kaplan-Meier method; format: functional, Cryptococcus gattii species complex; conditions: time 9 day
Cryptococcus neoformans [4] = test: Antifungal activity against Cryptococcus neoformans clinical isolate HN20 assessed as fungal growth inhibition incubated for 72 hrs by broth microdilution method; format: functional
[5] = test system: Cryptococcus gattii species complex; test: Antifungal activity against Cryptococcus gattii clinical isolate SCZ20031 assessed as fungal growth inhibition incubated for 72 hrs by broth microdilution method; format: functional
Cryptococcus neoformans [6] = test: Antifungal activity against Cryptococcus neoformans clinical isolate 443 assessed as fungal growth inhibition incubated for 72 hrs by broth microdilution method; format: functional
[7] = Hemolytic activity in rabbit RBC at 16 ug/ml incubated for 1 hr by spectrophotometry; format: toxicity, cell-based, Oryctolagus cuniculus, Erythrocyte; conditions: red blood cells, at 16 µg/mL, read-out: Activity
Cryptococcus neoformans [8] = test: Antifungal activity against Cryptococcus neoformans clinical isolate BJ3 assessed as fungal growth inhibition incubated for 72 hrs by broth microdilution method; format: functional
Cryptococcus neoformans [9] = test: Antifungal activity against Cryptococcus neoformans H99 infected in Wax moth larvae assessed as survival rate at 10 mg/kg measured after 9 days by Kaplan-Meier method; format: functional; conditions: H99, 216 h, time 9 day
Cryptococcus neoformans [10] = test: Antifungal activity against Cryptococcus neoformans clinical isolate HN19 assessed as fungal growth inhibition incubated for 72 hrs by broth microdilution method; format: functional
[11] = test system: Cryptococcus gattii species complex; test: Antifungal activity against Cryptococcus gattii clinical isolate SCZ20024 assessed as fungal growth inhibition incubated for 72 hrs by broth microdilution method; format: functional
Nakaseomyces glabratus = test: Antifungal activity against Candida glabrata ATCC1182 assessed as fungal growth inhibition incubated for 48 hrs by broth microdilution method; format: functional
Cryptococcus neoformans [12] = test: Antifungal activity against Cryptococcus neoformans clinical isolate HN2-40 assessed as fungal growth inhibition incubated for 72 hrs by broth microdilution method; format: functional
Cryptococcus neoformans [13] = test: Antifungal activity against Cryptococcus neoformans clinical isolate HN2 assessed as fungal growth inhibition incubated for 72 hrs by broth microdilution method; format: functional
Cryptococcus neoformans [14] = test: Antifungal activity against Cryptococcus neoformans H99 assessed as fungal growth inhibition incubated for 72 hrs by broth microdilution method; format: functional
Cryptococcus neoformans [15] = test: Antifungal activity against Cryptococcus neoformans clinical isolate HN17 assessed as fungal growth inhibition incubated for 72 hrs by broth microdilution method; format: functional
[16] = Hemolytic activity in rabbit RBC at 256 ug/ml incubated for 1 hr by spectrophotometry; format: toxicity, cell-based, Oryctolagus cuniculus, Erythrocyte; conditions: red blood cells, at 256 µg/mL, read-out: Activity
Cryptococcus neoformans [17] = test: Antifungal activity against Cryptococcus neoformans clinical isolate 445 assessed as fungal growth inhibition incubated for 72 hrs by broth microdilution method; format: functional
[18] = Cytotoxicity against human Caco-2 cells assessed as cell viability at 256 ug/ml incubated for 24 hrs by CCK-8 assay; format: toxicity, cell-based; conditions: at 256 µg/mL, read-out: Activity
[19] = test system: Cryptococcus deuterogattii; test: Antifungal activity against Cryptococcus gattii WM178 infected in Wax moth larvae assessed as survival rate at 10 mg/kg measured after 9 days by Kaplan-Meier method; format: functional, Cryptococcus gattii species complex; conditions: WM178, 216 h, time 9 day
[20] = test system: Cryptococcus deuterogattii; test: Antifungal activity against Cryptococcus gattii WM178 assessed as fungal growth inhibition incubated for 72 hrs by broth microdilution method; format: functional, Cryptococcus gattii species complex
Cryptococcus neoformans [21] = test: Antifungal activity against Cryptococcus neoformans clinical isolate HN15 assessed as fungal growth inhibition incubated for 72 hrs by broth microdilution method; format: functional
[Candida] auris = Antifungal activity against Candida auris CBS 12372 assessed as fungal growth inhibition incubated for 48 hrs by broth microdilution method; format: functional; conditions: Candidozyma auris
[22] = test system: Cryptococcus gattii species complex; test: Antifungal activity against Cryptococcus gattii clinical isolate SCZ20031 assessed as fungal growth inhibition incubated for 72 hrs in presence of P163-0892 by broth microdilution method; format: functional
Cryptococcus neoformans [23] = test: Antifungal activity against Cryptococcus neoformans clinical isolate 56992 assessed as fungal growth inhibition incubated for 72 hrs by broth microdilution method; format: functional
Cryptococcus neoformans [24] = test: Antifungal activity against Cryptococcus neoformans H99 infected in Wax moth larvae assessed as median survival time at 10 mg/kg measured after 9 days by Kaplan-Meier method; format: functional; conditions: time 9 day
Cryptococcus gattii = test: Antifungal activity against Cryptococcus gattii WM179 assessed as fungal growth inhibition incubated for 72 hrs by broth microdilution method; format: functional, Cryptococcus gattii species complex
Candida albicans = test: Antifungal activity against Candida albicans SC5314 assessed as fungal growth inhibition incubated for 48 hrs by broth microdilution method; format: functional
[25] = Cytotoxicity against human HUVEC cells assessed as inhibition on cell growth incubated for 24 hrs by CCK-8 assay; format: toxicity, cell-based
Cryptococcus neoformans [26] = test: Antifungal activity against Cryptococcus neoformans H99 infected in Wax moth larvae assessed as reduction on fungal burden at 10 mg/kg measured after 9 days by 10 fold serial dilution method; format: functional; conditions: time 9 day
Cryptococcus neoformans [27] = test: Synergistic antifungal activity against Cryptococcus neoformans clinical isolate BJ3 assessed as fractional inhibitory concentration index incubated for 72 hrs in presence of P163-0892 by broth microdilution method; format: functional
Cryptococcus neoformans [28] = test: Antifungal activity against Cryptococcus neoformans clinical isolate HN1 assessed as fungal growth inhibition incubated for 72 hrs by broth microdilution method; format: functional
Candida tropicalis = test: Antifungal activity against Candida tropicalis ATCC20026 assessed as fungal growth inhibition incubated for 48 hrs by broth microdilution method; format: functional
Pichia kudriavzevii = test: Antifungal activity against Candida krusei ATCC2340 assessed as fungal growth inhibition incubated for 48 hrs by broth microdilution method; format: functional
Aspergillus fumigatus = test: Antifungal activity against Aspergillus fumigatus 7544 assessed as fungal growth inhibition incubated for 48 hrs by broth microdilution method; format: functional
Cryptococcus neoformans [29] = test: Antifungal activity against Cryptococcus neoformans clinical isolate 444 assessed as fungal growth inhibition incubated for 72 hrs by broth microdilution method; format: functional
[30] = test system: Cryptococcus gattii species complex; test: Antifungal activity against Cryptococcus gattii E566 assessed as fungal growth inhibition incubated for 72 hrs by broth microdilution method; format: functional
[31] = Cytotoxicity against human HUVEC cells assessed as cell viability at 256 ug/ml incubated for 24 hrs by CCK-8 assay; format: toxicity, cell-based; conditions: at 256 µg/mL, read-out: Activity
Cryptococcus neoformans [32] = test: Antifungal activity against Cryptococcus neoformans clinical isolate HN19 assessed as fungal growth inhibition incubated for 72 hrs in presence of Fluconazole by broth microdilution method; format: functional
Cryptococcus neoformans [33] = test: Synergistic antifungal activity against Cryptococcus neoformans clinical isolate HN19 assessed as fractional inhibitory concentration index incubated for 72 hrs in presence of Fluconazole by broth microdilution method; format: functional
Cryptococcus neoformans [34] = test: Antifungal activity against Cryptococcus neoformans clinical isolate 443 assessed as fungal growth inhibition incubated for 72 hrs in presence of Fluconazole by broth microdilution method; format: functional
Cryptococcus neoformans [35] = test: Antifungal activity against Cryptococcus neoformans H99 assessed as reduction on fungal growth at 8 ug/ml incubated for 48 hrs by plate reader assay; format: functional, organism-based; conditions: dose 8.0 µg/ml
Candida parapsilosis = test: Synergistic antifungal activity against Candida parapsilosis ATCC22019 assessed as fractional inhibitory concentration index incubated for 48 hrs in presence of Fluconazole by broth microdilution method; format: functional
[36] = Tmax in Sprague-Dawley rat at 5 mg/kg,po by LC-MS/MS analysis; format: ADME, organism-based; conditions: in vivo

## OC(Cn1cncn1)(Cn1cncn1)c1ccc(F)cc1F [FLUCONAZOLE]
Cryptococcus neoformans [1]
  MIC: 8 µg/mL (≈ 26.1 µM)
Cryptococcus neoformans [2]
  fractional inhibitory concentration index (FICI): 0.156
[3]
  MST: 3 days
Cryptococcus neoformans [4]
  MIC: 0.5 µg/mL (≈ 1.63 µM)
[5]
  MIC: 8 µg/mL (≈ 26.1 µM)
Cryptococcus neoformans [6]
  MIC: 8 µg/mL (≈ 26.1 µM)
[7]
  hemolysis at 1 h, 16 ug/ml: 2.65%
Cryptococcus neoformans [8]
  MIC: 2 µg/mL (≈ 6.53 µM)
Cryptococcus neoformans [9]
  survival at 10 mg/kg: 35%
Cryptococcus neoformans [10]
  MIC: 4 µg/mL (≈ 13.1 µM)
[11]
  MIC: 4 µg/mL (≈ 13.1 µM)
Nakaseomyces glabratus
  MIC: > 64 µg/mL
Cryptococcus neoformans [12]
  MIC: 1 µg/mL (≈ 3.27 µM)
Cryptococcus neoformans [13]
  MIC: 2 µg/mL (≈ 6.53 µM)
Cryptococcus neoformans [14]
  MIC: 16 µg/mL (≈ 52.2 µM)
Cryptococcus neoformans [15]
  MIC: 4 µg/mL (≈ 13.1 µM)
[16]
  hemolysis at 1 h, 256 ug/ml: 2.67%
Cryptococcus neoformans [17]
  MIC: 8 µg/mL (≈ 26.1 µM)
[18]
  viability at 24 h, 256 ug/ml: 95.3%
[19]
  survival at 10 mg/kg: 40%
[20]
  MIC: 4 µg/mL (≈ 13.1 µM)
Cryptococcus neoformans [21]
  MIC: 4 µg/mL (≈ 13.1 µM)
[Candida] auris
  MIC: 1 µg/mL (≈ 3.27 µM)
[22]
  MIC: 1 µg/mL
Cryptococcus neoformans [23]
  MIC: 2 µg/mL (≈ 6.53 µM)
Cryptococcus neoformans [24]
  MST: 2.5 days
Cryptococcus gattii
  MIC: 4 µg/mL (≈ 13.1 µM)
Candida albicans
  MIC: 0.5 µg/mL (≈ 1.63 µM)
[25]
  IC50 at 24 h: > 64 µg/mL
Cryptococcus neoformans [26]
  Activity: 5.3 log10CFU/g
Cryptococcus neoformans [27]
  fractional inhibitory concentration index (FICI): 0.188
Cryptococcus neoformans [28]
  MIC: 2 µg/mL (≈ 6.53 µM)
Candida tropicalis
  MIC: 2 µg/mL (≈ 6.53 µM)
Pichia kudriavzevii
  MIC: 8 µg/mL (≈ 26.1 µM)
Aspergillus fumigatus
  MIC: > 64 µg/mL
Cryptococcus neoformans [29]
  MIC: 4 µg/mL (≈ 13.1 µM)
[30]
  MIC: 4 µg/mL (≈ 13.1 µM)
[31]
  viability at 24 h, 256 ug/ml: 108%

## CCCCNC(=O)c1c(O)c2sccc2n(Cc2ccccc2)c1=O
Cryptococcus neoformans [1]
  MIC: 0.5 µg/mL (≈ 1.4 µM)
[3]
  MST: 3 days
Cryptococcus neoformans [4]
  MIC: 0.25 µg/mL (≈ 0.701 µM)
[5]
  MIC: 1 µg/mL (≈ 2.81 µM)
Cryptococcus neoformans [6]
  MIC: 1 µg/mL (≈ 2.81 µM)
Cryptococcus neoformans [32]
  MIC: 0.0313 µg/mL
[7]
  hemolysis at 1 h, 16 ug/ml: 2.32%
Cryptococcus neoformans [8]
  MIC: 0.5 µg/mL (≈ 1.4 µM)
Cryptococcus neoformans [9]
  survival at 10 mg/kg: 30%
Cryptococcus neoformans [33]
  fractional inhibitory concentration index (FICI): 0.281
Cryptococcus neoformans [10]
  MIC: 1 µg/mL (≈ 2.81 µM)
[11]
  MIC: 1 µg/mL (≈ 2.81 µM)
Cryptococcus neoformans [34]
  MIC: 0.0313 µg/mL
Nakaseomyces glabratus
  MIC: > 64 µg/mL
Cryptococcus neoformans [12]
  MIC: 0.5 µg/mL (≈ 1.4 µM)
Cryptococcus neoformans [13]
  MIC: 0.5 µg/mL (≈ 1.4 µM)
Cryptococcus neoformans [35]
  Activity: Active
Cryptococcus neoformans [14]
  MIC: 0.25 µg/mL (≈ 0.701 µM)
Cryptococcus neoformans [15]
  MIC: 1 µg/mL (≈ 2.81 µM)
Candida parapsilosis
  fractional inhibitory concentration index (FICI): 0.625
[16]
  hemolysis at 1 h, 256 ug/ml: 2.47%
Cryptococcus neoformans [17]
  MIC: 2 µg/mL (≈ 5.61 µM)
[18]
  viability at 24 h, 256 ug/ml: 104%
[19]
  survival at 10 mg/kg: 35%
[20]
  MIC: 0.5 µg/mL (≈ 1.4 µM)
Cryptococcus neoformans [21]
  MIC: 1 µg/mL (≈ 2.81 µM)
[Candida] auris
  MIC: > 64 µg/mL
Cryptococcus neoformans [23]
  MIC: 1 µg/mL (≈ 2.81 µM)
Cryptococcus neoformans [24]
  MST: 2.5 days
Cryptococcus gattii
  MIC: 0.5 µg/mL (≈ 1.4 µM)
Candida albicans
  MIC: > 64 µg/mL
[25]
  IC50 at 24 h: > 64 µg/mL
Cryptococcus neoformans [26]
  Activity: 5.7 log10CFU/g
[36]
  Tmax: 3.17 min
Cryptococcus neoformans [28]
  MIC: 0.5 µg/mL (≈ 1.4 µM)
Candida tropicalis
  MIC: > 64 µg/mL
Pichia kudriavzevii
  MIC: > 64 µg/mL
Aspergillus fumigatus
  MIC: > 64 µg/mL
Cryptococcus neoformans [29]
  MIC: 0.5 µg/mL (≈ 1.4 µM)
[30]
  MIC: 0.5 µg/mL (≈ 1.4 µM)
[31]
  viability at 24 h, 256 ug/ml: 107%
